Results as given in US7192746B2, “α-Isomaltosyltransferase, process for producing the same and use thereof” (Kabushiki Kaisha Hayashibara Seibutsu Kagaku Kenkyujo, priority 2000, dated 2007).

Tests used:
Test in all cases: Specificity to transferring acceptor
Format in all cases: biochemical
[1] = system: α-isomaltosyl-transferring enzyme from Arthrobacter globiformis A19; details: partially purified enzyme, panose as saccharide donor, 10 units/g substrate, 3.2% (w/v), 30° C., pH 6.0, 24 hours
Protocol: (§1) Saccharides were tested as follows to examine whether they can be used as transferring acceptors for the α-isomaltosyl-transferring enzyme of the present invention. A solution of D-glucose, D-xylose, L-xylose, D-galactose, D-fructose, D-mannose, D-arabinose, D-fucose, L-sorbose, L-rhamnose, methyl-α-glucoside (or methyl-α-glucopyranoside), methyl-β-glucoside (or methyl-β-glucopyranoside), N-acetyl-D-glucosamine, D-ribose, L-ribose, D-psicose, sorbitol, xylitol, mannitol, arabitol, ribitol, erythritol, maltose, maltotriose, maltotetraose, maltopentaose, isomaltose, isomaltotriose, α,α-trehalose, α,β-trehalose, kojibiose, nigerose, cellobiose, gentibiose, isopanose, maltitol, maltotriitol, lactose, sucrose, erlose, isomaltosylglucoside, α-cyclodextrin, β-cyclodextrin, γ-cyclodextrin, or L-ascorbic acid was prepared. To each solution was added panose as a saccharide donor to give an equal concentration, admixed with 10 units/g substrate of a purified specimen of either α-isomaltosyl-transferring enzyme from Bacillus globisporus C9 obtained by the method in Experiment 4, Bacillus globisporus C11 obtained by the method in Experiment 7, Bacillus globisporus N75 obtained by the method in Experiment 11, or Arthrobacter ramosus S1 obtained by the method in Experiment 15, or a partially purified specimen of α-isomaltosyl-transferring enzyme from Arthrobacter globiformis A19 obtained by the method in Experiment 18, followed by adjusting the saccharide concentration to 3.2% (w/v). The mixtures thus obtained were enzymatically reacted at 30° C. and Ph 6.0 for 24 hours. The saccharide composition of the resulting reaction mixtures were analyzed on gas chromatography (abbreviated as “GLC” hereinafter) for monosaccharides and disaccharides as testing saccharides, and on HPLC for tri- or higher-saccharides as testing saccharides to confirm whether these saccharides can be used as transferring acceptors for the above enzymes with an index of the positive or negative formation of a saccharide transferred product. In performing GLC, the following apparatuses and conditions were used: GLC apparatus, “GC-16A” commercialized by Shimadzu Corporation, Tokyo, Japan; column, a stainless-steel column, 3 mm in diameter and 2 m in length, packed with 2% “SILICONE OV-17/[…]”, commercialized by GL Sciences Inc., Tokyo, Japan; carrier gas, nitrogen gas at a flow rate of 40 ml/min under temperature conditions of increasing from 160° C. to 320° C. at an increasing temperature rate of 7.5° C./min; and detection, a hydrogen flame ionization detector. In the case of HPLC analysis, the apparatuses and conditions used were: HPLC apparatus, “CCPD” commercialized by Tosoh Corporation, Tokyo, Japan; column, “ODS-AQ-303” commercialized by YMC Co., Ltd., Tokyo, Japan; eluent, water at a flow rate of 0.5 ml/min; and detection, a differential refractometer.

[2] = system: α-isomaltosyl-transferring enzyme from Arthrobacter ramosus S1; details: panose as saccharide donor, 10 units/g substrate, 3.2% (w/v), 30° C., pH 6.0, 24 hours
Protocol: as §1

[3] = system: α-isomaltosyl-transferring enzyme from Bacillus globisporus C11; details: panose as saccharide donor, 10 units/g substrate, 3.2% (w/v), 30° C., pH 6.0, 24 hours
Protocol: as §1

[4] = system: α-isomaltosyl-transferring enzyme from Bacillus globisporus C9; details: panose as saccharide donor, 10 units/g substrate, 3.2% (w/v), 30° C., pH 6.0, 24 hours
Protocol: as §1

[5] = system: α-isomaltosyl-transferring enzyme from Bacillus globisporus N75; details: panose as saccharide donor, 10 units/g substrate, 3.2% (w/v), 30° C., pH 6.0, 24 hours
Protocol: as §1

SMILES | Product of transferring reaction, Enzyme of Stain A19 [1] | Product of transferring reaction, Enzyme of Strain S1 [2] | Product of transferring reaction, Enzyme of Strain C11 [3] | Product of transferring reaction, Enzyme of Strain C9 [4] | Product of transferring reaction, Enzyme of Strain N75 [5]
O=C[C@@H](O)[C@H](O)[C@@H](O)CO [L-Xylose, L-xylose] | ++ (a saccharide-transferred product was formed in an amount of over 10% to the total sugars) | ++ (a saccharide-transferred product was formed in an amount of over 10% to the total sugars) | ++ (a saccharide-transferred product was formed in an amount of over 10% to the total sugars) | ++ (a saccharide-transferred product was formed in an amount of over 10% to the total sugars) | ++ (a saccharide-transferred product was formed in an amount of over 10% to the total sugars)
C[C@H](O)[C@H](O)[C@@H](O)[C@@H](O)C=O [L-Rhamnose, L-rhamnose] | ± (a saccharide-transferred product formed in an amount of less than one percent to the total sugars) | + (a saccharide-transferred product was formed in an amount of over one percent but below 10% to the total sugars) | ± (a saccharide-transferred product formed in an amount of less than one percent to the total sugars) | ± (a saccharide-transferred product formed in an amount of less than one percent to the total sugars) | ± (a saccharide-transferred product formed in an amount of less than one percent to the total sugars)
